Test results taken from patent US7476676B2, “Methods for increasing bone formation using inhibitors of glycogen synthase kinase-3β” (Roche Palo Alto LLC, priority 2002, dated 2009).
Like-named read-outs stand apart in the source and are kept apart here.

What was measured:
[1] = system: Ovalbumin-sensitized Brown-Norway rats; experiment: Study GSK8 - bone formation in rats treated with Compound II-3; type: in vivo, rat; settings: twice daily oral gavage Days 6-8 and 13-23, liposome formulation
Experimental: Ovalbumin-sensitized Brown-Norway rats were used. They were sensitized i.p. with 100 μg of OA (ovalbumin) in 0.2 ml alum once every week for three weeks (Day 0, 7 and 14). Seven days after the final sensitization (Day 21), rats were challenged with 1% OA for 45 minutes and euthanized 72 hrs later (day 24). Compound II-3 was given twice daily by oral gavage on Days 6-8 and Days 13-23. Compound was prepared as a liposome formulation—8 mg/ml liposome solution in a liposome composition of 1.44 grams of compound and 54 grams of L-alpha-phosphatidylcholine in 160 ml of sterile water for injection.
Femur samples were decalcified in 10% formic acid, embedded in paraffin, sectioned at five micron thickness and stained with hematoxylin and eosin.

[2] = biological target: T1, truncated form of recombinant rabbit GSK-3β enzyme (Oryctolagus cuniculus, UniProt G1T8E2); experiment: Inhibition of Glycogen Synthase Kinase-3β in vitro assay; type: biochemical
T1 construct: The construct was cloned in pGEX-3X vector; fused on or other part: GST at the N-terminus (pGEX-3X vector, purified on glutathione sepharose 4B)
Experimental: The in vitro GSK-3β inhibitory activity of compounds of this invention was determined with a truncated form of recombinant rabbit GSK-3β enzyme.
The construct was cloned in pGEX-3X vector according to the procedure described in Wang, Q. M. et al., J. Biol. Chem. 269, 14566-14574 (1994). Ten amino acids at the N-terminus were deleted to obtain constitutively active GSK-3β ((see Murai H. et al., FEBS Lett. 392,153-60, (1996)). GSK-3β was expressed in BL21 DE3 cells. The cells were grown at 37° C. until they reached mid log phase and then induced with isopropyl-beta-(D)-thiogalactopyranoside (final concentration 0.4 mM) at 30° C. for 2 h. The cells were homogenized and the cell extract was loaded on a glutathione sepharose 4B column. GSK-3β was eluted with glutathione buffer (50 mM Tris pH 8 and 10 mM reduced glutathione). The eluate was collected in 3 minute fractions and assayed for GSK-3β content on a 10% SDS PAGE (polyacrylamide gel electrophoresis). Fractions above 20% peak height were pooled, aliquoted, and stored at −80° C. until used.
ATP (1 μCi), and 2 μl of compounds of this invention in DMSO (various concentrations). 15 μl of GSK-3β (various concentrations) was added and the reaction mixture was incubated at 30° C. for 1 h. The reaction was stopped by transferring 25 μl of the reaction mixture to a phosphocellulose plate containing 130 μl of 1.85% phosphoric acid. The free radionucleotides in the membrane were washed off under vacuum with 1.85% phosphoric acid (5 times). After the last wash, the plate was transferred to an adoptor plate and 50 μl of scintillation cocktail (Microscint-20, Packard, cat. #20-133) was added to each well and the amount of radioactivity was counted in a top counter.

osteopenic rat model = experiment: Bone anabolism in the rat (osteopenic rat model; bone mineral density, serum and urine calcium); type: in vivo
Experimental: . Three month old rats are ovariectomized (Ovx) and administered either bovine parathyroid hormone (Amino Acids^1-34) (bPTH in Table) or one of the compounds of the present invention once a day by mouth starting at least 4 weeks post-ovariectomy and continuing until final sacrifice after 3 weeks of daily treatment. Control groups, both sham (rats that were not ovariectomized) and Ovx, received vehicle only. Bovine parathyroid hormone, bPTH, was tested at 40 ug/kg (optimal dose) as an internal positive control for anabolic activity. […] Blood and urine samples were collected at 2-3 weeks after initiation of treatment and the amount of calcium in the serum and urine was determined.
The bone mineral density of the right femur was determined using the High Resolution Software on a QDR-4500W Bone Densitometer™ (Hologic, Waltham, Mass.). The animals were scanned by placing them on a plexiglass block in a supine position such that the right leg was perpendicular to the main body and the tibia was perpendicular to the femur. The increase in the bone mineral density and the amount of calcium in the urine and the serum for the compounds are given in the table below.

Male Wistar rats = experiment: Study MT021 - bone formation in rats with Compound II-9; type: in vivo, rat
Experimental: Compound was formulated as a solution in 10% w/v Solutol. Male Wistar rats were dosed by oral gavage, once per day for 14 days at 25, 75 or 150 mg/kg/day and compared to vehicle control (10% Solutol, 10 ml/kg/day). Complete necroscopies were done and the tissues preserved in 10% formalin. Femur, sternum and vertabra were processed and analyzed as described in Example 3.

[3] = Ovx rats, 0.04 mg/kg/day, Compound X study
[4] = Ovx rats, 0.04 mg/kg/day, III-2 Ovx study
[5] = Sham (intact) rats, 0.04 mg/kg/day
[6] = Ovx rats, 30 mg/kg/day by mouth
[7] = Sham (intact) rats, 30 mg/kg/day by mouth

T1 sequence (G1T8E2 1-432): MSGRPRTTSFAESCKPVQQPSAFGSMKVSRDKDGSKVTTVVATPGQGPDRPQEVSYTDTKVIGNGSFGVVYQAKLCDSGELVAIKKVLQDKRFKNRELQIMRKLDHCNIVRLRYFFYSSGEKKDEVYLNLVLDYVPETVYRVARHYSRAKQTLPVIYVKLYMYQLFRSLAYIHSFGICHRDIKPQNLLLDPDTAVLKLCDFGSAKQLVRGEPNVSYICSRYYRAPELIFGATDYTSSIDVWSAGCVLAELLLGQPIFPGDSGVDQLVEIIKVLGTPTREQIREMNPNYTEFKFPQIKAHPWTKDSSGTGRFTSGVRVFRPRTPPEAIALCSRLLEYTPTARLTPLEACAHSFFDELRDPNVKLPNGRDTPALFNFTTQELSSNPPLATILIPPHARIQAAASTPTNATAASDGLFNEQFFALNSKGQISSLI

For `Cn1cc(C2=C(c3cccc(OC[C@H](O)CO)c3)C(=O)NC2=O)c2ccccc21` [II-3], the melting point was 177.7 to 178 °C, the “cancellous bone under the growth plate of the femur (light microscopy)” value [1] was “moderate increases in cancellous bone” and the IC50 [2] was 3.2 nM.

`Nc1nc(NCCNc2ncc(-c3ncc[nH]3)c(-c3ccc(Cl)cc3Cl)n2)ccc1[N+](=O)[O-]` [Compound X, N^6-{2-[4-(2,4-dichloro-phenyl)-5-(1H-imidazol-2-yl)-pyrimidin-2-ylamino]-ethyl}-3-nitro-pyridine-2,6-diamine, reference compound] showed an IC50 ([2]; GSK-3β assay of Biological Example 1) of 1.7 nM.

In the case of “bPTH: bovine parathyroid hormone (Amino Acids 1-34), internal positive control for anabolic activity”, the “LUMBAR SPINE % 3 wk BMD Change” value (osteopenic rat model; [3]) is reported as 8.6 ± 1.8%, the “WHOLE FEMUR % 3 wk BMD Change” value (osteopenic rat model; [3]) is reported as 7.0 ± 1.1% and the “LUMBAR SPINE % 3 wk BMD Change” value (osteopenic rat model; [4]) is reported as 12.2 ± 1.5%. The “WHOLE FEMUR % 3 wk BMD Change” value (osteopenic rat model; [4]) was 16.6 ± 0.9%, the “LUMBAR SPINE % 3 wk BMD Change” value (osteopenic rat model; [5]) was 15.7 ± 0.8% and the “WHOLE FEMUR % 3 wk BMD Change” value (osteopenic rat model; [5]) was 11.7 ± 1.0%.

With `Cn1cc(C2=C(c3cccc(OCCN4CCOCC4)c3)C(=O)NC2=O)c2ccccc21` [II-4] the melting point was 197.7 to 199 °C.

In the case of `Cl.Cn1cc(C2=C(c3cccc(NCC(O)CO)c3)C(=O)NC2=O)c2cc(F)ccc21` (stereo not shown) [III-2], the “LUMBAR SPINE % 3 wk BMD Change” value (osteopenic rat model; [6]) is reported as 7.9 ± 1.8%, the “WHOLE FEMUR % 3 wk BMD Change” value (osteopenic rat model; [6]) is reported as 11.6 ± 0.9% and the “LUMBAR SPINE % 3 wk BMD Change” value (osteopenic rat model; [7]) is reported as 9.5 ± 1.8%. The “WHOLE FEMUR % 3 wk BMD Change” value (osteopenic rat model; [7]) was 13.1 ± 1.3%.

For `Cn1cc(C2=C(c3ccccc3OCC(O)CO)C(=O)NC2=O)c2ccccc21` (stereo not shown) [Compound I-1], the melting point was 245 to 247.1 °C.

`Cn1cc(C2=C(c3cccc(NCCCO[Si](C)(C)C(C)(C)C)c3)C(=O)NC2=O)c2ccccc21` gave a melting point of 58 to 65 °C.

For `Cl.Cn1cc(C2=C(c3cccc(NCC(O)CO)c3)C(=O)NC2=O)c2ccccc21` (stereo not shown) [II-9], the “animals with increased cancellous bone” value (Male Wistar rats; 25 mg/kg group, oral, 14 days) was “only one animal”, the “rats with increased new bone formation” value (Male Wistar rats; 150 mg/kg group, oral, 14 days) was “Five out of six” and the “cancellous bone (femur, sternum, vertebra)” value (Male Wistar rats; oral gavage once per day for 14 days at 25, 75 or 150 mg/kg/day) was “Increased cancellous bone was observed in all groups”. The melting point was 160 to 163.5 °C and the IC50 [2] was 1.5 nM.
